≈ marks a conversion by molar mass, not a printed value. Like-named read-outs stand apart in the source and are kept apart here.
Key:
Assay in all cases: Minimum inhibitory concentration (MIC) by agar dilution
Type in all cases: cell-based
Pseudomonas aeruginosa = details: Pseudomonas aeruginosa
Experimental: (§1) The antibacterial activity of the compounds of Formula IC was determined by using standard testing procedures such as the determination of minimum inhibitory concentration (MIC) by agar dilution as described in "Methods for Dilution Antimicrobial Susceptibility Tests for Bacteria That Grow Aerobically" (MFT) published January 1983 by the National Committee for Clinical Laboratory Standards, 771 East Lancaster Avenue, Villanova, Pa. 19084, USA. Briefly, MIC values are determined in unsupplemented Mueller Hinton Agar (MHA). The compounds tested are diluted serially into molten MHA at 47° C. The agar is poured into petri dishes and allowed to harden. The various bacteria used for testing are grown overnight on MHA at 35° C. and transferred to Trypticase soy broth (TSB) until a turbidity of 0.5 McFarland standard is obtained. The bacteria are diluted one to 20 in TSB and inoculated on the plates (1 μl using a Steers replicator).
as §1, with “Compounds of this invention can also be tested for in vitro antimicrobial” for “The antibacterial”, “activity” for “activity of the compounds of Formula IC was determined by”, “Jan.” for “January”, “Penna.” for “Pa.”, “(1μl” for “(1 μl”, “replicator). […] The MIC test results of selected of Formula B compounds of this invention are found in Tables B2-B9.” for “replicator).”

Serratia marcescens = details: 20 h, read-out: MINIMUM INHIBITORY CONCENTRATION
Experimental: as §1
as §1, with “Compounds of this invention can also be tested for in vitro antimicrobial” for “The antibacterial”, “activity” for “activity of the compounds of Formula IC was determined by”, “Jan.” for “January”, “Penna.” for “Pa.”, “(1μl” for “(1 μl”, “replicator). […] The MIC test results of selected of Formula B compounds of this invention are found in Tables B2-B9.” for “replicator).”

Citerobacter freundii = system: Citerobacter freundii
Experimental: as §1
as §1, with “Compounds of this invention can also be tested for in vitro antimicrobial” for “The antibacterial”, “activity” for “activity of the compounds of Formula IC was determined by”, “Jan.” for “January”, “Penna.” for “Pa.”, “(1μl” for “(1 μl”, “replicator). […] The MIC test results of selected of Formula B compounds of this invention are found in Tables B2-B9.” for “replicator).”

Streptococcus faecalis = details: Enterococcus faecalis
Experimental: as §1
as §1, with “Compounds of this invention can also be tested for in vitro antimicrobial” for “The antibacterial”, “activity” for “activity of the compounds of Formula IC was determined by”, “Jan.” for “January”, “Penna.” for “Pa.”, “(1μl” for “(1 μl”, “replicator). […] The MIC test results of selected of Formula B compounds of this invention are found in Tables B2-B9.” for “replicator).”

Streptococcus pneumoniae = details: Streptococcus pneumoniae
Experimental: as §1
as §1, with “Compounds of this invention can also be tested for in vitro antimicrobial” for “The antibacterial”, “activity” for “activity of the compounds of Formula IC was determined by”, “Jan.” for “January”, “Penna.” for “Pa.”, “(1μl” for “(1 μl”, “replicator). […] The MIC test results of selected of Formula B compounds of this invention are found in Tables B2-B9.” for “replicator).”

Klebsiella pneumoniae = system: Klebsiella pneumoniae
Experimental: as §1
as §1, with “Compounds of this invention can also be tested for in vitro antimicrobial” for “The antibacterial”, “activity” for “activity of the compounds of Formula IC was determined by”, “Jan.” for “January”, “Penna.” for “Pa.”, “(1μl” for “(1 μl”, “replicator). […] The MIC test results of selected of Formula B compounds of this invention are found in Tables B2-B9.” for “replicator).”

Proteus penneri = details: Proteus penneri
Experimental: as §1
as §1, with “Compounds of this invention can also be tested for in vitro antimicrobial” for “The antibacterial”, “activity” for “activity of the compounds of Formula IC was determined by”, “Jan.” for “January”, “Penna.” for “Pa.”, “(1μl” for “(1 μl”, “replicator). […] The MIC test results of selected of Formula B compounds of this invention are found in Tables B2-B9.” for “replicator).”

Staphylococcus aureus = details: Staphylococcus aureus
Experimental: as §1
as §1, with “Compounds of this invention can also be tested for in vitro antimicrobial” for “The antibacterial”, “activity” for “activity of the compounds of Formula IC was determined by”, “Jan.” for “January”, “Penna.” for “Pa.”, “(1μl” for “(1 μl”, “replicator). […] The MIC test results of selected of Formula B compounds of this invention are found in Tables B2-B9.” for “replicator).”

Streptococcus pyogenes = details: Streptococcus pyogenes
Experimental: as §1
as §1, with “Compounds of this invention can also be tested for in vitro antimicrobial” for “The antibacterial”, “activity” for “activity of the compounds of Formula IC was determined by”, “Jan.” for “January”, “Penna.” for “Pa.”, “(1μl” for “(1 μl”, “replicator). […] The MIC test results of selected of Formula B compounds of this invention are found in Tables B2-B9.” for “replicator).”

[1] = system: Acinetobacter calcoaceticus; details: Acinetobacter calcoaceticus
Experimental: as §1
as §1, with “Compounds of this invention can also be tested for in vitro antimicrobial” for “The antibacterial”, “activity” for “activity of the compounds of Formula IC was determined by”, “Jan.” for “January”, “Penna.” for “Pa.”, “(1μl” for “(1 μl”, “replicator). […] The MIC test results of selected of Formula B compounds of this invention are found in Tables B2-B9.” for “replicator).”

[2] = system: Staphylococcus epidermidis; details: 20 h
Experimental: as §1
as §1, with “Compounds of this invention can also be tested for in vitro antimicrobial” for “The antibacterial”, “activity” for “activity of the compounds of Formula IC was determined by”, “Jan.” for “January”, “Penna.” for “Pa.”, “(1μl” for “(1 μl”, “replicator). […] The MIC test results of selected of Formula B compounds of this invention are found in Tables B2-B9.” for “replicator).”

Escherichia coli = details: Escherichia coli
Experimental: as §1
as §1, with “Compounds of this invention can also be tested for in vitro antimicrobial” for “The antibacterial”, “activity” for “activity of the compounds of Formula IC was determined by”, “Jan.” for “January”, “Penna.” for “Pa.”, “(1μl” for “(1 μl”, “replicator). […] The MIC test results of selected of Formula B compounds of this invention are found in Tables B2-B9.” for “replicator).”

Enterobacter cloacae = system: Enterobacter cloacae
Experimental: Briefly, MIC values are determined in unsupplemented Mueller Hinton Agar (MHA). The compounds tested are diluted serially into molten MHA at 47° C. The agar is poured into petri dishes and allowed to harden. The various bacteria used for testing are grown overnight on MHA at 35° C. and transferred to Trypticase soy broth (TSB) until a turbidity of 0.5 McFarland standard is obtained. The bacteria are diluted one to 20 in TSB and inoculated on the plates (1 μl using a Steers replicator).
as §1, with “Compounds of this invention can also be tested for in vitro antimicrobial” for “The antibacterial”, “activity” for “activity of the compounds of Formula IC was determined by”, “Jan. […]” for “January 1983 by the National Committee for Clinical Laboratory Standards, 771 East Lancaster Avenue, Villanova, Pa. 19084, USA.”, “(1μl” for “(1 μl”

[3] = 20 h, read-out: MINIMUM INHIBITORY CONCENTRATION

C#CCn1cc(C(=O)O)c(=O)c2cc(F)c(N3CCNCC3)c(F)c21.CS(=O)(=O)O [C, (+,-)-6,8-difluoro-1,4-dihydro-4-oxo-7-(1-piperazinyl)-1-(2-propynyl)-3-quinolinecarboxylic acid methanesulfonate]
MIC (Pseudomonas aeruginosa; UC6676, 20 h, read-out: Minimum Inhibitory Concentration, Ps. aeruginosa UC 6676, Table CI): 16 µg/mL | MIC (Pseudomonas aeruginosa; UC9191, 20 h, read-out: Minimum Inhibitory Concentration, Ps. aeruginosa UC 9191, Table CI): 8 µg/mL | MIC (Pseudomonas aeruginosa; UC12120, 20 h, read-out: Minimum Inhibitory Concentration, Ps. aeruginosa UC 12120, Table CI): 8 µg/mL | MIC (Serratia marcescens): 0.25 µg/mL | MIC (Citerobacter freundii; Citrobacter freundii, UC3507, 20 h, read-out: Minimum Inhibitory Concentration): 1 µg/mL | MIC (Streptococcus faecalis; UC9217, 20 h, read-out: Minimum Inhibitory Concentration): > 64 µg/mL | MIC (Streptococcus pneumoniae; UC41, 20 h, read-out: Minimum Inhibitory Concentration, S. pneumoniae UC 41, Table CI): > 64 µg/mL | MIC (Klebsiella pneumoniae; UC12081, 20 h, read-out: Minimum Inhibitory Concentration): 2 µg/mL | MIC (Proteus penneri; UC9679, 20 h, read-out: Minimum Inhibitory Concentration, P. penneri UC 9679, Table CI): 1 µg/mL | MIC (Staphylococcus aureus; UC6685, 20 h, read-out: Minimum Inhibitory Concentration, S. aureus UC 6685, Table CI): 32 µg/mL | MIC (Staphylococcus aureus; UC9213, 20 h, read-out: Minimum Inhibitory Concentration, S. aureus UC 9213, Table CI): 32 µg/mL | MIC (Staphylococcus aureus; UC9218, 20 h, read-out: Minimum Inhibitory Concentration, S. aureus UC 9218, Table CI): 32 µg/mL | MIC (Staphylococcus aureus; UC9271, 20 h, read-out: Minimum Inhibitory Concentration, S. aureus UC 9271, Table CI): 32 µg/mL | MIC (Streptococcus pyogenes; UC152, 20 h, read-out: Minimum Inhibitory Concentration, S. pyogenes UC 152, Table CI): 32 µg/mL | MIC ([1]; UC12170, 20 h, read-out: Minimum Inhibitory Concentration, A. calcoaceticus UC 12170, Table CI): 8 µg/mL | MIC ([2]; read-out: Minimum Inhibitory Concentration): 16 µg/mL | MIC (Escherichia coli; UC6674, 20 h, read-out: Minimum Inhibitory Concentration, E. coli UC 6674, Table CI): 1 µg/mL | MIC (Escherichia coli; UC9451, 20 h, read-out: Minimum Inhibitory Concentration, E. coli UC 9451, Table CI): 2 µg/mL | MIC (Escherichia coli; UC9855, 20 h, read-out: Minimum Inhibitory Concentration, E. coli UC 9855, Table CI): 2 µg/mL | MIC (Escherichia coli; UC9952, 20 h, read-out: Minimum Inhibitory Concentration, E. coli UC 9952, Table CI): 1 µg/mL | MIC (Enterobacter cloacae; UC9382, 20 h, read-out: Minimum Inhibitory Concentration): 1 µg/mL

O=C(O)c1cn(C23CC(C2)C3)c2c(F)c(N3CCNCC3)c(F)cc2c1=O [No. 1, 1-(bicyclo[1.1.1]pent-1-yl)-6,8-difluoro-1,4-dihydro-4-oxo-7-(1-piperazinyl)-3-quinolinecarboxylic acid]
MIC (Pseudomonas aeruginosa; 20 h, read-out: MINIMUM INHIBITORY CONCENTRATION, Cult No. 6676, MHA): 2 µg/mL (≈ 5.33 µM) | MIC (Pseudomonas aeruginosa; 20 h, read-out: MINIMUM INHIBITORY CONCENTRATION, Cult No. 9191, MHA): 1 µg/mL (≈ 2.66 µM) | MIC (Pseudomonas aeruginosa; 20 h, read-out: MINIMUM INHIBITORY CONCENTRATION, Cult No. 12120, MHA): 1 µg/mL (≈ 2.66 µM) | MIC (Serratia marcescens): 0.25 µg/mL (≈ 0.666 µM) | MIC (Citerobacter freundii; [3]): 0.06 µg/mL (≈ 0.16 µM) | MIC (Streptococcus faecalis; [3]): 2 µg/mL (≈ 5.33 µM) | MIC (Streptococcus pneumoniae; 20 h, read-out: MINIMUM INHIBITORY CONCENTRATION, Cult No. 41, MHA): 2 µg/mL (≈ 5.33 µM) | MIC (Klebsiella pneumoniae; [3]): 0.125 µg/mL (≈ 0.333 µM) | MIC (Proteus penneri; 20 h, read-out: MINIMUM INHIBITORY CONCENTRATION, Cult No. 9679, MHA): 0.5 µg/mL (≈ 1.33 µM) | MIC (Staphylococcus aureus; 20 h, read-out: MINIMUM INHIBITORY CONCENTRATION, Cult No. 3665, MHA): 0.5 µg/mL (≈ 1.33 µM) | MIC (Staphylococcus aureus; 20 h, read-out: MINIMUM INHIBITORY CONCENTRATION, Cult No. 6685, MHA): 0.5 µg/mL (≈ 1.33 µM) | MIC (Staphylococcus aureus; 20 h, read-out: MINIMUM INHIBITORY CONCENTRATION, Cult No. 9213, MHA): 1 µg/mL (≈ 2.66 µM) | MIC (Staphylococcus aureus; 20 h, read-out: MINIMUM INHIBITORY CONCENTRATION, Cult No. 9218, MHA): 0.5 µg/mL (≈ 1.33 µM) | MIC (Staphylococcus aureus; 20 h, read-out: MINIMUM INHIBITORY CONCENTRATION, Cult No. 9271, MHA): 0.5 µg/mL (≈ 1.33 µM) | MIC (Streptococcus pyogenes; 20 h, read-out: MINIMUM INHIBITORY CONCENTRATION, Cult No. 152, MHA): 2 µg/mL (≈ 5.33 µM) | MIC ([1]; 20 h, read-out: MINIMUM INHIBITORY CONCENTRATION, Cult No. 12170, MHA): 0.25 µg/mL (≈ 0.666 µM) | MIC ([2]; read-out: MINIMUM INHIBITORY CONCENTRATION): 0.25 µg/mL (≈ 0.666 µM) | MIC (Escherichia coli; 20 h, read-out: MINIMUM INHIBITORY CONCENTRATION, Cult No. 6674, MHA): 0.06 µg/mL (≈ 0.16 µM) | MIC (Escherichia coli; 20 h, read-out: MINIMUM INHIBITORY CONCENTRATION, Cult No. 9451, MHA): 0.06 µg/mL (≈ 0.16 µM) | MIC (Escherichia coli; 20 h, read-out: MINIMUM INHIBITORY CONCENTRATION, Cult No. 9855, MHA): 0.06 µg/mL (≈ 0.16 µM) | MIC (Escherichia coli; 20 h, read-out: MINIMUM INHIBITORY CONCENTRATION, Cult No. 9952, MHA): 0.06 µg/mL (≈ 0.16 µM) | MIC (Enterobacter cloacae; [3]): 0.06 µg/mL (≈ 0.16 µM)

Reference: patent publication US5262417A, “Antibacterial quinolone compounds” (The Upjohn Company, priority 1991, dated 1993)
